Results published in PubChem BioAssay (NCI).
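Cultured in 96-well plates, cells were exposed to test compound for 48 hours across five concentrations. The concentration for 50% growth inhibition is given as GI50. The concentration for full growth arrest is given as TGI.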

Columns and labels:
Test in all cases: NCI tumour cell line growth inhibition, 48 h
[1] = system: BT-549 breast
[2] = system: MALME-3M melanoma
[3] = system: MDA-MB-435
[4] = system: MDA-N
[5] = system: MOLT-4 leukemia
[6] = system: OVCAR-8 ovarian
[7] = system: SK-MEL-2 melanoma
[8] = system: SK-OV-3 ovarian
[9] = system: SW-620 colon
[10] = system: CCRF-CEM leukemia

SMILES	TGI [1]	TGI [2]	TGI [3]	TGI [4]	TGI [5]	TGI [6]	TGI [7]	TGI [8]	TGI [9]	TGI [10]	GI50 [1]	GI50 [10]	GI50 [2]	GI50 [3]	GI50 [5]	GI50 [6]	GI50 [7]	GI50 [8]	GI50 [9]
O=C(Oc1cc(=O)c(OC(=O)c2ccccc2)co1)c1ccccc1	> 100 µM	> 100 µM	> 100 µM	> 100 µM	> 100 µM	> 100 µM	> 100 µM	> 100 µM	> 100 µM										
CC1CN=C(N(C(=O)Nc2ccc(F)c(Cl)c2)c2ccccc2)S1 (stereo not given)		78.5 µM		34.7 µM	62.2 µM	65.7 µM	32.8 µM	98.7 µM	90.3 µM	> 100 µM									
Cc1ccc(CC[P+](=O)CCc2ccc(C)nc2)cn1		> 100 µM	> 100 µM	> 100 µM	> 100 µM	> 100 µM		> 100 µM	> 100 µM	> 100 µM									
COc1ccc(-c2c3c([nH]c(=S)c2C#N)CC(C)(C)CC3=O)cc1	> 100 µM	> 100 µM		> 100 µM	> 100 µM	> 100 µM	> 100 µM		> 100 µM	> 100 µM									
C=C1c2cc3c(cc2CC12Cc1cc4c(cc1C2=O)CCC4)CCC3 (stereo not given)		> 100 µM	> 100 µM	> 100 µM	> 100 µM	> 100 µM	> 100 µM	> 100 µM	> 100 µM	> 100 µM									
COc1ccc(-c2oc(/C=N/NC(N)=S)c([N+](=O)[O-])c2-c2ccc(OC)c(OC)c2)cc1OC		35.9 µM				81.8 µM	35.2 µM	69.3 µM	> 100 µM										
C[C@@H](Cl)[C@H]1CCCN(Cc2ccc(Br)cc2)C1		> 12.5 µM	> 12.5 µM	> 12.5 µM	> 12.5 µM	> 12.5 µM	> 12.5 µM	> 12.5 µM	> 12.5 µM	> 12.5 µM									
CC(O)CCCOC(c1ccccc1)(c1ccccc1)c1ccccc1 (stereo not given)		27.8 µM	30.4 µM	31.7 µM	> 50.9 µM	28.2 µM	29.5 µM	30.8 µM	32.3 µM	> 67.2 µM									
CCOC(=O)c1nc2ccc(C(F)(F)F)cc2nc1Oc1ccc(C#N)cc1	36.8 µM		> 100 µM		> 100 µM	46.4 µM	30.5 µM	46 µM	> 100 µM	> 100 µM									
CCC1=CC2CN3Cn4c(c(COCc5c6n(c7ccccc57)CN5CC7C=C(CC)C5C6(C(=O)OC)C7)c5ccccc54)C(C(=O)OC)(C2)C13		> 100 µM			> 100 µM	> 100 µM	> 100 µM	> 100 µM	> 100 µM	> 100 µM									
C(/C=C(\Nc1ccccc1)C12CC3CC(CC(C3)C1)C2)=Nc1ccccc1	31.6 µM	36.9 µM	34.3 µM	30.9 µM	22.9 µM	49.8 µM		46.5 µM	41.7 µM	8.38 µM									
Cc1cc2c([N+](=O)[O-])cc3c(c2o1)C(=O)C=CC3=O	30.4 µM		7.81 µM	28 µM	2.94 µM	> 55.7 µM	35.3 µM	> 80.1 µM											
O=C(NCCCN(CCCCN(CCCNC(=O)C(F)(F)F)Cc1ccc2ccccc2c1)Cc1ccc2ccccc2c1)C(F)(F)F	> 100 µM		3.87 µM		> 100 µM	> 100 µM	> 100 µM	> 100 µM	> 100 µM	> 100 µM									
Cc1cn(-c2cc(C(=O)Nc3cccc(-n4ccc5c(NC(=O)c6ccccc6)nccc54)c3)cc(C(F)(F)F)c2)cn1	10 µM	9.66 µM	0.635 µM		10.6 µM	2.99 µM	11.9 µM	3.53 µM	1.78 µM	2.09 µM	0.72 µM	0.299 µM	0.502 µM	0.217 µM	0.531 µM	0.419 µM	0.342 µM	0.325 µM	0.39 µM
Cc1cn([C@@H]2C[C@H](CO)[C@@H](O)C2)c(=O)[nH]c1=O		> 100 µM			> 100 µM	> 100 µM	> 100 µM	> 100 µM	> 100 µM	> 100 µM									
CC(C)(C)OC(=O)NCCC(N)=S	> 100 µM	> 100 µM	> 100 µM	> 100 µM	> 100 µM	> 100 µM		> 100 µM	> 100 µM	> 100 µM									
COc1c(O)c2c3c(c(C)cc(O)c3c1O)C(=O)C(O)(C(C)(C)C(C)=O)C2=O (stereo not given)		> 100 µM			> 100 µM	> 100 µM	> 100 µM	> 100 µM	> 100 µM	> 100 µM									
O=C(O)c1cc(-c2ccc3c(O)c(O)ccc3c2)ccc1O		> 75 µM	> 75 µM	> 75 µM	33.2 µM	> 75 µM	> 75 µM	> 75 µM	36.8 µM	33.6 µM									
CC(=O)c1cccn1/C=C(\OC(=O)OC(C)(C)C)c1ccc[nH]1	> 100 µM	> 100 µM	> 100 µM	> 100 µM	> 100 µM	> 100 µM	> 100 µM		> 100 µM	> 100 µM									
O=C1Sc2ccccc2C(=O)N2CSCC12 (stereo not given)		> 100 µM			> 100 µM	> 100 µM	> 100 µM	> 100 µM	> 100 µM	> 100 µM									
CCN(CC)CCCNC(=O)c1ccc([N+](=O)[O-])cc1O		> 100 µM			> 100 µM	> 100 µM	> 100 µM	> 100 µM	> 100 µM	> 100 µM									
S=C(/N=c1\sc(Nc2ccc(Cl)cc2)nc2sc3c(c12)CCN(N1CCc2c(sc4nc(Nc5ccc(Cl)cc5)s/c(=N\C(=S)Nc5ccc(Cl)cc5)c24)C1)C3)Nc1ccc(Cl)cc1	> 100 µM	> 100 µM		30.8 µM	> 100 µM	> 100 µM	52.2 µM	66.4 µM	> 100 µM										
